Experimental data taken from PubChem BioAssay AID286 (DTP/NCI, 2004).
“And” between values parts separate entries of the source, which are not always exact repeats. Equal entries are not always repeated. Inconclusive results and toxic doses are left out. Starred links: 1 amine or outer side, 2 acyl side, 3 side chain; linkers in the order of their positions; H or OH if unused. Positions of bridges follow the written chain, without caps; N, C: chain ends. Non-standard residues stand in square brackets, D forms with d. Residues, ends and D or L forms follow the SMILES beside them. Chains are numbered I, II in the order given. Actinocin(9to1) = Cc1c2oc3c(C)ccc(C(=O)[*:1])c3nc-2c(C(=O)[*:2])c(N)c1=O; aThr = C[C@H](O)[C@H](N)C(=O)O; NMeV = CN[C@H](C(=O)O)C(C)C; Sar = CNCC(=O)O

Test system: BDF1 mice, M5076 sarcoma ip, median survival T/C
Assay: NCI In Vivo Anticancer Drug Screen. Data for tumor model Sarcoma M5076 (intraperitoneal) in B6D2F1 (BDF1) mice
Settings: endpoint: median survival time, higher = longer survival
Procedure: The antitumor activity of compounds was measured in mice bearing transplantable tumors. Survival or tumor size were measured and the results are expressed as the measurement made in the treated group (T) divided by the measurement made in the vehicle treated control group (C). The tumor model used in this assay is Sarcoma M5076 (intraperitoneal) in B6D2F1 (BDF1) mice

[1] = dose: 12.5 mg/kg/injection, schedule: Q04DX004 (ip), vehicle: saline with Tween-80
[2] = dose: 25.0 mg/kg/injection, schedule: Q04DX004 (ip), vehicle: saline with Tween-80

Structure (SMILES): COC(=O)C1=C2Nc3ccccc3C23CCN2C(O)C4(CC5CC67CCOC6CCN6CCC8(c9cccc(OC)c9N(C4)C58O)C67)C4OCCC4(C1)C23 (stereo not given)
- T/C (dose: 3.12 mg/kg/injection, schedule: Q01DX009 (ip), vehicle: Klucel (hydroxypropylcellulose) (HPC)): 102 % of control
- T/C (dose: 6.25 mg/kg/injection, schedule: Q01DX009 (ip), vehicle: Klucel (hydroxypropylcellulose) (HPC)): 100 % of control
- T/C (dose: 12.5 mg/kg/injection, schedule: Q01DX009 (ip), vehicle: Klucel (hydroxypropylcellulose) (HPC)): 106 % of control
- T/C (dose: 25.0 mg/kg/injection, schedule: Q01DX009 (ip), vehicle: Klucel (hydroxypropylcellulose) (HPC)): 99 % of control
- T/C (dose: 50.0 mg/kg/injection, schedule: Q01DX009 (ip), vehicle: Klucel (hydroxypropylcellulose) (HPC)): 104 % of control

Structure (SMILES): O=C1N[C@H]2[C@H](O)[C@H](O)[C@@H](O)[C@H](O)[C@@H]2c2cc3c(c(O)c21)OCO3
- T/C (dose: 0.38 mg/kg/injection, schedule: Q01DX009 (ip), vehicle: saline + alcohol): 153 % of control
- T/C (dose: 0.75 mg/kg/injection, schedule: Q01DX009 (ip), vehicle: saline + alcohol): 159 % of control
- T/C (dose: 1.5 mg/kg/injection, schedule: Q01DX009 (ip), vehicle: saline + alcohol): 161 % of control and 166 % of control
- T/C (dose: 3.0 mg/kg/injection, schedule: Q01DX009 (ip), vehicle: saline + alcohol): 184 % of control and 165 % of control

Structure (SMILES): C[C@@]12C(=O)OC(=O)[C@]1(C)[C@H]1CC[C@@H]2O1
- T/C (dose: 0.25 mg/kg/injection, schedule: Q01DX009 (ip), vehicle: acetone): 115 % of control
- T/C (dose: 0.5 mg/kg/injection, schedule: Q01DX009 (ip), vehicle: acetone): 120 % of control
- T/C (dose: 62.5 micrograms/kg/injection, schedule: Q01DX009 (ip), vehicle: acetone): 113 % of control
- T/C (dose: 250.0 micrograms/kg/injection, schedule: Q01DX009 (ip), vehicle: acetone): 115 % of control
- T/C (dose: 1000.0 micrograms/kg/injection, schedule: Q01DX009 (ip), vehicle: acetone): 150 % of control

Structure (SMILES): CCCCCCCCCCCCCCCC(=O)O[C@@H]1[C@@H](C)[C@@]2(O)[C@@H](C=C(CO)C[C@]3(O)C(=O)C(C)=C[C@@H]23)[C@H]2[C@]1(OC(C)=O)[C@]2(C)CO
- T/C (dose: 62.5 micrograms/kg/injection, schedule: Q01DX009 (ip), vehicle: distilled water + Tween-80): 117 % of control
- T/C (dose: 125.0 micrograms/kg/injection, schedule: Q01DX009 (ip), vehicle: distilled water + Tween-80): 121 % of control
- T/C (dose: 250.0 micrograms/kg/injection, schedule: Q01DX009 (ip), vehicle: distilled water + Tween-80): 122 % of control

Structure (SMILES): C/C(=N\NC(=S)N1CC2CCC(CC2)C1)c1nccs1
- T/C [1]: 107 % of control
- T/C [2]: 106 % of control

Structure (SMILES): Cc1c(N)nc([C@H](CC(N)=O)NC[C@H](N)C(N)=O)nc1C(=O)N[C@H](C(=O)N[C@H](C)[C@@H](O)[C@H](C)C(=O)N[C@H](C(=O)NCCc1nc(-c2nc(C(=O)NCCC[S+](C)C)cs2)cs1)[C@@H](C)O)C(OC1OC(CO)C(O)C(O)C1OC1OC(CO)C(O)C(OC(N)=O)C1O)c1cnc[nH]1 (stereo not given in full)
- T/C (dose: 4.0 mg/kg/injection, schedule: Q04DX004 (ip), vehicle: saline): 113 % of control
- T/C (dose: 8.0 mg/kg/injection, schedule: Q04DX004 (ip), vehicle: saline): 101 % of control
- T/C (dose: 16.0 mg/kg/injection, schedule: Q04DX004 (ip), vehicle: saline): 117 % of control
- T/C (dose: 32.0 mg/kg/injection, schedule: Q04DX004 (ip), vehicle: saline): 116 % of control

Structure (SMILES): COc1cc(C)c(C2NC(=O)c3ccccc3N2)cc1C (stereo not given)
- T/C [1]: 102 % of control
- T/C [2]: 102 % of control
- T/C (dose: 50.0 mg/kg/injection, schedule: Q04DX004 (ip), vehicle: saline with Tween-80): 90 % of control
- T/C (dose: 100.0 mg/kg/injection, schedule: Q04DX004 (ip), vehicle: saline with Tween-80): 105 % of control
- T/C (dose: 200.0 mg/kg/injection, schedule: Q04DX004 (ip), vehicle: saline with Tween-80): 124 % of control

Structure (SMILES): CN(C)CCN1C(=O)c2cccc3cc(N)cc(c23)C1=O
- T/C (dose: 4.5 mg/kg/injection, schedule: Q04DX004 (ip), vehicle: acid diluted with saline): 109 % of control
- T/C (dose: 9.0 mg/kg/injection, schedule: Q04DX004 (ip), vehicle: acid diluted with saline): 107 % of control
- T/C (dose: 18.0 mg/kg/injection, schedule: Q04DX004 (ip), vehicle: acid diluted with saline): 115 % of control

Structure (SMILES): CCN(CC)CCCNc1nccc2c(C)c3[nH]c4ccncc4c3cc12
- T/C (dose: 0.63 mg/kg/injection, schedule: Q04DX004 (ip), vehicle: other): 152 % of control
- T/C (dose: 1.25 mg/kg/injection, schedule: Q04DX004 (ip), vehicle: other): 191 % of control
- T/C (dose: 2.5 mg/kg/injection, schedule: Q04DX004 (ip), vehicle: other): 179 % of control
- T/C (dose: 5.0 mg/kg/injection, schedule: Q04DX004 (ip), vehicle: other): 260 % of control
- T/C (dose: 10.0 mg/kg/injection, schedule: Q04DX004 (ip), vehicle: other): 208 % of control

Structure (SMILES): CCC1(O)CC2CN(CCc3c([nH]c4ccccc34)C(C(=O)OC)(c3cc4c(cc3OC)N(C)C3C(O)(C(N)=O)C(O)C5(CC)C=CCN6CCC43C65)C2)C1 (stereo not given) (tested in a mixture with another compound)
- T/C (dose: 0.5 mg/kg/injection, schedule: Q04DX005 (ip), vehicle: saline): 208 % of control
- T/C (dose: 1.0 mg/kg/injection, schedule: Q04DX005 (ip), vehicle: saline): 208 % of control

Structure (SMILES): O=C(O)CC(NC(=O)CP(=O)(O)O)C(=O)O (stereo not given)
- T/C (dose: 50.0 mg/kg/injection, schedule: Q04DX005 (ip), vehicle: saline): 164 % of control
- T/C (dose: 100.0 mg/kg/injection, schedule: Q04DX005 (ip), vehicle: saline): 180 % of control
- T/C (dose: 108.0 mg/kg/injection, schedule: Q04DX004 (ip), vehicle: saline): 178 % of control
- T/C (dose: 180.0 mg/kg/injection, schedule: Q04DX004 (ip), vehicle: saline): 195 % of control
- T/C (dose: 200.0 mg/kg/injection, schedule: Q04DX005 (ip), vehicle: saline): 165 % of control
- T/C (dose: 300.0 mg/kg/injection, schedule: Q04DX004 (ip), vehicle: saline): 195 % of control
- T/C (dose: 400.0 mg/kg/injection, schedule: Q04DX005 (ip), vehicle: saline): 184 % of control and 200 % of control
- T/C (dose: 500.0 mg/kg/injection, schedule: Q04DX004 (ip), vehicle: saline): 204 % of control
- T/C (dose: 833.0 mg/kg/injection, schedule: Q04DX004 (ip), vehicle: saline): 216 % of control

Structure (SMILES): CCC(O)CC1OC2(CCC1C)CC1OC(=O)/C=C\C(C)(O)C(O)C(C)C(O)C(OC3CC(OC)C(O)C(C)O3)C(O)C(C)(O)CCC/C=C/C3CC(C)COC3(O)CC(O2)C1C (stereo not given)
- T/C (dose: 0.25 mg/kg/injection, schedule: Q01DX009 (ip), vehicle: saline + alcohol): 105 % of control
- T/C (dose: 0.5 mg/kg/injection, schedule: Q01DX009 (ip), vehicle: saline + alcohol): 113 % of control
- T/C (dose: 1.0 mg/kg/injection, schedule: Q01DX009 (ip), vehicle: saline + alcohol): 104 % of control
- T/C (dose: 2.0 mg/kg/injection, schedule: Q01DX009 (ip), vehicle: saline + alcohol): 111 % of control

Structure (SMILES): Cc1c2oc3c(C)ccc(C(=O)N[C@@H]4C(=O)N[C@H](C(C)C)C(=O)N5CCC[C@H]5C(=O)N(C)CC(=O)N(C)[C@@H](C(C)C)C(=O)O[C@H]4C)c3nc-2c(C(=O)N[C@@H]2C(=O)N[C@H](C(C)C)C(=O)N3CCC[C@H]3C(=O)N(C)CC(=O)N(C)[C@@H](C(C)C)C(=O)O[C@H]2C)c(N)c1=O (I: [aThr][dV]P[Sar][NMeV] / II: [aThr][dV]P[Sar][NMeV]; ester I:1-I:C, II:1-II:C; linker I:N-II:N via Actinocin(9to1))
- T/C (dose: 0.1 mg/kg/injection, schedule: Q04DX004 (ip), vehicle: saline + alcohol): 165 % of control
- T/C (dose: 0.2 mg/kg/injection, schedule: Q04DX004 (ip), vehicle: saline + alcohol): 178 % of control

Structure (SMILES): COC1C(O)CC(OC2CC(Oc3cc4cc5c(c(O)c4c(O)c3C)C(=O)[C@@H](OC3CC(OC4CC(OC6CC(C)(O)C(OC(C)=O)C(C)O6)C(O)C(C)O4)C(O)C(C)O3)[C@H]([C@H](OC)C(=O)[C@@H](O)[C@@H](C)O)C5)OC(C)C2OC(C)=O)OC1C (stereo not given in full)
- T/C (dose: 37.5 micrograms/kg/injection, schedule: Q01DX009 (ip), vehicle: water): 168 % of control
- T/C (dose: 75.0 micrograms/kg/injection, schedule: Q01DX009 (ip), vehicle: water): 163 % of control
